In patent US20170007669A1, “PEPTIDE-MEDIATED DELIVERY OF ACTIVE AGENTS ACROSS THE BLOOD-BRAIN BARRIER” (Mayo Foundation for Medical Education and Research, priority 2015, published 2017):
Blank lines part the entries; values can stand above or below the compound they belong to. Where no end group is shown, it is not given here.

Assays:
blood-brain barrier = assay: Transportation of Evan's Blue (EB) dye across the BBB after IV injection of peptide; format: in vivo, mouse; conditions: for EB dye in brain: EB 10 min later, brain collected 1 h after EB
Experimental: To explore whether K16ApoE (SEQ. ID. NO: 42) compromises integrity of the BBB, the peptide was first injected by IV followed by injection of Evan's Blue (EB; a routinely used small molecule blue dye with a molecular weight of 960.81) by IV into the femoral vein of a mouse. Cardiac perfusion was performed and the brains of the mice were removed and evaluated approximately 2 hours following injection of the dye. As controls, a peptide consisting of 16 lysine residues (K16) and a 20-amino acid peptide comprising the LDLR-binding domain of ApoE (ApoE-FITC; (SEQ ID NO:13)), were used. The particulars of each administration are as follows: • 1) 67.5 nanomoles of K16 injected first, then ˜40 μL 2% EB was injected. • 2) Same as 1 but K16 and EB mixed prior to injection. • 3) 67.5 nanomoles of ApoE-FITC injected first, then ˜40 μL 2% EB was injected. • 4) Same as 3 but ApoE-FITC peptide and EB was mixed prior to injection. • 5) 67.5 nanomoles of K16ApoE injected first, then ˜40 μL 2% EB was injected. • 6) Same as 5 but K16ApoE peptide and EB was mixed first before injection.
Using the method described in Example 1, various amounts of K16ApoE (SEQ. ID. NO: 42) was injected followed by administration of ˜40 μL 2% EB. The particulars of each administration are as follows: • 1) EB alone. • 2) 50 μg (11.25 nanomoles) K16ApoE first, followed by administration of EB. • 3) 100 μg (22.5 nanomoles) K16ApoE first, followed by administration of EB. • 4) 200 μg (45 nanomoles) K16ApoE first, followed by administration of EB. • 5) 300 μg (67.5 nanomoles) K16ApoE first, followed by administration of EB.
˜40 μL of 2% EB was injected 10 min after injection of various amounts of K16ApoE (75 μg, 100 μg, 150 μg, 250 μg, and 300 μg) or K26ApoE (25 μg, 50 μg, 75 μg, 100 μg, 125 μg, and 150 μg). K26ApoE (SEQ ID NO: 139) having the sequence:
Brain tissue as was collected 1 h following EB injection. All injections were at the femoral vein.

[1] = Tissue distribution of Evans Blue (EB) after delivery via K16ApoE; format: in vivo, mice; conditions: tissues 1 h after EB
Experimental: Mice were injected with various amounts of K16ApoE peptide (0 μg, 150 μg, 100 μg, 75 μg, 50 μg, 25 and μg) first. EB (40 μL of a 2% solution was injected 10 min after injection of the peptide. Tissues (brains, lungs, heart, liver, spleen and kidney) were collected 1 h after EB delivery. All injections were through the femoral vein.

[2] = Residence time of EB dye in brain following transportation by the peptide; format: in vivo, mice; conditions: EB 10 min after 300 μg K16ApoE
Experimental: A series of mice were administered 300 μg of K16ApoE followed by administration of ˜40 μL 2% EB 10 min after administration of the peptide. As a control, only EB was injected, cardiac perfusion was done 6 hours after EB injection, followed by collection of brain. For all other mice, perfusion and collection of brains was performed 15 min, 30 min, 1 h, 2 h, 4 h, 6 h, 12, h, and 24 h following administration of EB.

Compound: KKKKKKKKKKKKKKKKKKKKKKKKKK- LRVRLASHLRKLRKRLLRDA (KKKKKKKKKKKKKKKKKKKKKKKKKKLRVRLASHLRKLRKRLLRDA) [K26ApoE]
EB dye in brain (blood-brain barrier; 25 μg peptide): no dye was observed
EB dye in brain (blood-brain barrier; 50 μg peptide): only a small amount of dye present
EB dye in brain (blood-brain barrier; 75 μg peptide): Increasing EB is observed
effectiveness in delivering EB to the brain relative to K16ApoE (blood-brain barrier; comparison of peptide amounts needed): approximately two-fold

time post EB administration from which dye is observed in brain [2]: 15 min
time EB is retained well in the brain ([2]; dye remains intense): up to 4 h
time EB is probably retained in the brain (less intense dye) ([2]; longest time point tested): up to 24 h
Compound: Cc1cc(-c2ccc(/N=N/c3ccc4c(S(=O)(=O)[O-])cc(S(=O)(=O)[O-])c(N)c4c3O)c(C)c2)ccc1/N=N/c1ccc2c(S(=O)(=O)[O-])cc(S(=O)(=O)[O-])c(N)c2c1O.[Na+].[Na+].[Na+].[Na+] [EB, Evan's Blue]
EB stain in organs ([1]; EB injected without K16ApoE): Kidney, spleen, liver and heart show some EB-stain

Compound: KKKKKKKKKKKKKKKKLRVRLASHLRKLRKRLLRDA [K16ApoE, KKKKKKKKKKKKKKKKLRVRLASHLRKLRKRLLRDA]
EB in brain ([1]; 0-150 μg K16ApoE, EB 10 min later): EB goes into brain only after injection of the peptide
EB stain in organs ([1]; EB injected after K16ApoE injection): Kidney, spleen and liver are stained with EB
